Source: PubChem BioAssay (NCI)
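Test compounds were applied to cells in 96-well plates for 48 hours at 5 doses. At the TGI there is no net growth.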

How the values were obtained:
Experiment in all cases: growth of human tumour cells (NCI), 48 h
CAKI-1 renal = system: CAKI-1 renal
HCT-116 colon = system: HCT-116 colon
IGROV1 ovarian = system: IGROV1 ovarian
MDA-MB-435 = system: MDA-MB-435
NCI-H23 lung = system: NCI-H23 lung
SF-295 CNS = system: SF-295 CNS
SK-OV-3 ovarian = system: SK-OV-3 ovarian
SNB-19 CNS = system: SNB-19 CNS
T-47D breast = system: T-47D breast
TK-10 renal = system: TK-10 renal
UACC-257 melanoma = system: UACC-257 melanoma

Structure (SMILES) | TGI (CAKI-1 renal) | TGI (HCT-116 colon) | TGI (IGROV1 ovarian) | TGI (MDA-MB-435) | TGI (NCI-H23 lung) | TGI (SF-295 CNS) | TGI (SK-OV-3 ovarian) | TGI (SNB-19 CNS) | TGI (T-47D breast) | TGI (TK-10 renal) | TGI (UACC-257 melanoma)
C#CC[C@@H]1C(=O)N(Cc2ccc(OC)cc2)[C@@H](C(C)C)C(=O)N1Cc1ccc(OC)cc1 | > 100 µM | > 100 µM | > 100 µM | > 100 µM | > 100 µM | > 100 µM | > 100 µM | > 100 µM | 51.1 µM | > 100 µM | > 100 µM
CC(=O)CCCCn1c(=O)c2c(nc(Br)n2C)n(C)c1=O | 3.87 µM | > 100 µM | > 100 µM | > 100 µM | > 100 µM | > 100 µM | > 100 µM | > 100 µM | > 100 µM | > 100 µM | > 100 µM
CSc1ncnc2c1cnn2Cc1cnnn1COCC(O)CO (stereo unspecified) | > 100 µM | > 100 µM | > 100 µM | > 100 µM | > 100 µM | > 100 µM | > 100 µM | > 100 µM | > 100 µM | > 100 µM | > 100 µM
FC(F)(F)c1ccc(C2ON=C(c3ccccc3)N2C23CC4CC(CC(C4)C2)C3)cc1 (stereo unspecified) | > 10 µM | > 10 µM | > 10 µM | > 10 µM | > 10 µM | > 10 µM | > 10 µM | > 10 µM | > 10 µM | > 10 µM | > 10 µM
COc1ccc(/C=c2\c(=O)[nH]c3nc4ccccc4c(=O)n23)cc1 | > 100 µM | > 100 µM | > 100 µM | > 100 µM | > 100 µM | > 100 µM | > 100 µM | > 100 µM | > 100 µM | > 100 µM | > 100 µM
CC1=NN=C(C)C1N=Nc1ccc2nc(C)[nH]c2c1 | > 44.7 µM | > 72.5 µM | 29.7 µM | > 100 µM | > 100 µM | > 75.1 µM | 24.2 µM | > 100 µM | 54.8 µM | > 100 µM | > 100 µM
O=C/C(=C1/C=Cc2cc([N+](=O)[O-])ccc2S1)c1ccccc1 | > 100 µM | > 100 µM | > 100 µM | > 100 µM | > 100 µM | > 100 µM | > 100 µM | > 100 µM | > 100 µM | > 100 µM | > 100 µM
COc1nc(N=P(c2ccccc2)(c2ccccc2)c2ccccc2)cc(=O)n1C | > 100 µM | > 100 µM | > 100 µM | > 100 µM | > 100 µM | > 100 µM | > 100 µM | > 100 µM | > 100 µM | > 100 µM | > 100 µM
O=C(O)c1nc2ccccc2nc1Nc1ccc(Cl)c(Cl)c1 | 77.9 µM | 76.7 µM | > 100 µM | > 100 µM | 50.1 µM | 69.8 µM | 88.1 µM | > 100 µM | 72.1 µM | > 100 µM | > 100 µM
O[C@]12C=C(c3nccc4c3[nH]c3ccccc34)[C@@H]3CCN(CCCC/C=C\CC1)C[C@@]31CC3/C=C\CCCCN3[C@H]12 (stereo partly specified) | 6.17 µM | 0.647 µM | 2.28 µM | 1.53 µM | 2.53 µM | 2.67 µM | 0.743 µM | 16.2 µM | 4.67 µM | 1.95 µM | 3.39 µM
O=C1Oc2ccccc2C1C/C(=N\Nc1ccccc1)c1ccccc1O (stereo unspecified) | > 100 µM | > 100 µM | > 100 µM | 76.2 µM | 74 µM | > 100 µM | > 100 µM | > 100 µM | 81.8 µM | > 100 µM | 90.5 µM
NS(=O)(=O)c1ccc(NC(=O)N/N=C/c2ccccc2O)cc1 | > 100 µM | > 100 µM | > 100 µM | 55.6 µM | > 100 µM | > 100 µM | > 100 µM | > 100 µM | > 100 µM | > 100 µM | > 100 µM
COC(=O)c1ccc2c(c1)CC1(C2)Cc2cc3c(cc2C1)CCC3 | > 100 µM | > 100 µM | > 100 µM | > 100 µM | > 100 µM | > 100 µM | > 100 µM | > 100 µM | > 100 µM | > 100 µM | > 100 µM
O=C1N=C2SC=C(NC(=S)Nc3ccccc3)N2NC12c1ccccc1-c1ccccc12 | > 10 µM | > 10 µM | > 10 µM | > 10 µM | > 10 µM | > 10 µM | > 10 µM | > 10 µM | > 10 µM | > 10 µM | > 10 µM
CC(C)C1CNC(=O)C2(C=NC(C(C)C)CNC(=O)C3(C=N1)CCCO3)CCCO2 (stereo unspecified) | > 10 µM | > 10 µM | > 10 µM | > 10 µM | > 10 µM | > 10 µM | > 10 µM | > 10 µM | > 10 µM | > 10 µM | > 10 µM
O=C(NCCN1CCCCC1)c1ccc(Br)cc1 | > 100 µM | > 100 µM | > 100 µM | > 100 µM | > 100 µM | > 100 µM | > 100 µM | > 100 µM | > 100 µM | > 100 µM | > 100 µM
